Measurements: patent US9932355B2, “2,5,6,7-tetrasubstituted thiazolo[4,5-b]pyridine derivatives and use thereof” (KYUNGPOOK NATIONAL UNIVERSITY INDUSTRY-ACADEMIC COOPERATION …, priority 2014, dated 2018)

Tested on: CLP-induced sepsis mouse model
Assay: Survival rate of CLP-induced sepsis mouse model
Format: in vivo
Conditions: male ICR mice, CLP surgery; tail intravenous injection 12 and 50 hours after surgery; FIG. 1
Description: An anti-inflammation effect of the prepared compound was tested by a survival rate of the sepsis mouse model induced by peritonitis. A CLP-induced sepsis mouse model is an in vivo method for investigating an anti-inflammation action, and the manufacturing method of the mouse model is a widely used experiment method [Wang H, Nat. Med., 2004, 10, 1216-1221]. 40 six-week-old male ICR mice were divided into 10 mice per each group, and the survival rate was observed.
First, after the male mouse was anesthetized by respiration using isoflurane, the abdomen of the mouse was cut in the middle by approximately 2 cm to take out an appendix adjacent to intestines, and the appendix was tied up at a part apart from 0.5 mm from the end of the appendix with a 3.0-silk suture, pierced once with a 22-gauge needle, and sutured the cut part with a 4.0 silk suture. An abdomen of a sham mouse was cut and sutured without tie-up or piercing of the appendix, and after 12 and 50 hours of the surgery, the prepared compound was administered by mouse tail intravenous injection.

COc1ccc(CNc2nc3nc4c(c(-c5ccc(OC)cc5)c3s2)CCCC4)cc1 [Compound 1-65, N-(4-methoxybenzyl)-9-(4-methoxyphenyl)-5,6,7,8-tetrahydrothiazolo[4,5-b]quinoline-2-amine]
survival rate increased, compared to the only CLP-treated group: 60%
